This note sets out measurements from US7429602B2, “Treating conjunctivitis by topically administering an epinastine solution to the conjunctiva” (Boehringer Ingelheim Pharma GmbH & Co. Kg, priority 1999, dated 2008).

The test concerns conjunctiva (eosinophils, neutrophils, mast cell degranulation). As to conditions: conjunctiva examined two hours after ovalbumin. The protocol: 72 hours after the rats have been sensitized by injecting antiserum into the eyelids of the test animals, a fresh provocation was induced in them by intravenous administration of ovalbumin. Some of the experimental animals were pretreated by the administration of solution containing epinastine according to the invention into the conjunctival sac 15 minutes before the ovalbumin is administered. Two hours after the administration of ovalbumin the experimental animals were killed and the conjunctiva was investigated for its content of eosinophils and neutrophils and the mast cell granulation was determined.

Where [1] appears, read: epinastine solution into the conjunctival sac 15 minutes before i.v. ovalbumin, p<0.01.

For `NC1=NCC2c3ccccc3Cc3ccccc3N12` (stereo not drawn) [epinastine, 3-amino-9,13b-dihydro-1H-dibenz-[c,f]imidazol[1,5-a]azepine], the “content of eosinophils in conjunctiva” value (epinastine solution 0.05-0.5% into the conjunctival sac 15 minutes before i.v. ovalbumin) is given as “significantly lower”. Under setting [1], the “content of lymphocytes in conjunctiva” value is given as “significantly lower” and the “inhibition of mast cell degranulation” value is listed as “roughly 35%”.
